Target: BRAF^V600E protein (Homo sapiens, UniProt P15056, V600E)
Assay: HiBiT cellular BRAF V600E degradation assay
Format: cell-based
Settings: 24 h incubation; for DC50: A375.10 cells (HiBiT tag knocked in at N-terminal of BRAF V600E), concentration at which 50% of total cellular BRAF V600E is degraded; for Emax: A375.10 cells, Emax = amount of residual protein remaining in the cell after compound treatment, read-out: HiBit 24 h Emax
From the text: DMEM no-phenol red medium supplemented with L-glutamine was purchased from (Corning). Fetal bovine serum (FBS) was purchased from Gibco (Grand Island, NY, USA). Nano-Glo® HiBiT Lytic Assay Buffer & Reagents were purchased from Promega (Madison, WI, USA). […] Cell culture flasks and 384-well black flat-bottom polystyrene TC-treated microplates were acquired from Corning (Corning, NY, USA).
HiBiT Cellular BRAFv^600E Degradation Assay
Prior to the assay, the A375.10 cell line is maintained in DMEM no-phenol red medium supplemented with 10% fetal bovine serum (FBS). […] Briefly, test compounds were added to the 384-well plate from a top concentration of 10 μM with 11 half log dilutions of compound, plated in duplicate. Then, 30 uL of a suspension of A375.10 cell lines was dispensed into columns 1-24 of the 384-well plates at a cell density of 7500 cells per well. The plates were kept at 37° C. with 5% CO2 for the duration of the assay (6 or 24 hr). After the desired incubation time with compound, 30 uL of Nano-Glo® HiBiT Lytic Buffer containing LgBiT protein (diluted 1:100) and luminescence substrate (diluted 1:50) were added to the cells in columns 1-23 of the assay plate. The plate was the incubated for 30 min on the bench at room temperature. Finally, HiBiT luminescence signal was acquired on EnVision™ Multilabel Reader (PerkinElmer, Santa Clara, CA, USA).
Quantification of luminescence responses measured in the presence of compound were normalized to a high signal/no degradation control (untreated cells+lytic detection reagent) and a low signal/full degradation control (untreated cells, no lytic detection reagent). Data were analyzed with a 4-parameter logistic fit to generate sigmoidal dose-response curves. […] The Emax, or maximum effect of each compound, represents the amount of residual protein remaining in the cell following compound treatment.

Chain of BRAF^V600E protein (P15056 whole entry V600E): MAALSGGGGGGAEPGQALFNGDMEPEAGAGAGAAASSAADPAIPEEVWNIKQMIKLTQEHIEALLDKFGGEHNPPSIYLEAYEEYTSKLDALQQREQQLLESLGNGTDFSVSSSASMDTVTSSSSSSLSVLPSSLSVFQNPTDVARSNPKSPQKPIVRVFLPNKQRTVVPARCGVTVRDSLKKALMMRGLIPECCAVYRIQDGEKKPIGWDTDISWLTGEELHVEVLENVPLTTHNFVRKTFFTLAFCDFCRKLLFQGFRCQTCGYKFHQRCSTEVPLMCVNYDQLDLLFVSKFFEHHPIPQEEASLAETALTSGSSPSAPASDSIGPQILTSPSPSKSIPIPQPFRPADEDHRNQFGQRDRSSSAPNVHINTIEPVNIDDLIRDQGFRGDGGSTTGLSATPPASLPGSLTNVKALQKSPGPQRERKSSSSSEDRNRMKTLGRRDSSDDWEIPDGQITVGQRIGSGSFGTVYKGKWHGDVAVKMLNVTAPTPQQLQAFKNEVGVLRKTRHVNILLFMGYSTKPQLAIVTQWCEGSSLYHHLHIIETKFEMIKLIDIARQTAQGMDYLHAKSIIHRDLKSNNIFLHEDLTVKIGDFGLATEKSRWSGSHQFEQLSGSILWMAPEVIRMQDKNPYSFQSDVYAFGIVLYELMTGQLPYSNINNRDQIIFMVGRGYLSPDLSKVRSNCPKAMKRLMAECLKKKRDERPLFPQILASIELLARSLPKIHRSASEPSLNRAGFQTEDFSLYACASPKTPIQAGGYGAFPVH

Structure (SMILES) | DC50 | Emax
CCN(C)S(=O)(=O)Nc1ccc(F)c(C(=O)c2c[nH]c3ncc(-c4ccc(N5CCN(CCN6CCC(c7ccc(OC8CCC(=O)NC8=O)cc7)CC6)C(=O)C5)nc4)cc23)c1F (centres unmarked) [Example 147, 5-[6-[4-[2-[4-[4-[(2,6-dioxo-3-piperidyl)oxy]phenyl]-1-piperidyl]ethyl]-3-oxo-piperazin-1-yl]-3-pyridyl]-3-[3-[[ethyl(methyl)sulfamoyl]amino]-2,6-difluoro-benzoyl]-1H-pyrrolo[2,3-b]pyridine] | 17.2 nM | 14.6%
CCN(C)S(=O)(=O)Nc1cccc(C(=O)c2c[nH]c3ncc(-c4cnc(N5CCN(C(=O)CN6CCC(c7ccc(NC8CCC(=O)NC8=O)cc7)C(F)(F)C6)CC5)nc4)cc23)c1F (centres unmarked) [Example 100, 5-[2-[4-[2-[4-[4-[(2,6-dioxo-3-piperidyl)amino]phenyl]-3,3-difluoro-1-piperidyl]acetyl]piperazin-1-yl]pyrimidin-5-yl]-3-[3-[[ethyl(methyl)sulfamoyl]amino]-2-fluoro-benzoyl]-1H-pyrrolo[2,3-b]pyridine] | 9.52 nM | 6.76%
CCN(C)S(=O)(=O)Nc1ccc(F)c(C(=O)c2c[nH]c3ncc(-c4cnc(N5CCN(C(=O)CN6CCC(c7ccc8c(C9CCC(=O)NC9=O)nn(C)c8c7)CC6)CC5)nc4)cc23)c1F (centres unmarked) [Example 27, 3-(2,6-dioxo-3-piperidyl)-6-[1-[2-[4-[5-[3-[3-[[ethyl(methyl)sulfamoyl]amino]-2,6-difluoro-benzoyl]-1H-pyrrolo[2,3-b]pyridin-5-yl]pyrimidin-2-yl]piperazin-1-yl]-2-oxo-ethyl]-4-piperidyl]-1-methyl-indazole] | 2.09 nM | 10.8%
CCN(C)S(=O)(=O)Nc1ccc(F)c(C(=O)c2c[nH]c3ncc(-c4cnc(N5CCN(C(=O)CN6CCC(c7ccc(NC8CCC(=O)NC8=O)cc7)C(F)(F)C6)CC5)nc4)cc23)c1F (centres unmarked) [Example 30, 5-[2-[4-[2-[4-[4-[(2,6-dioxo-3-piperidyl)amino]phenyl]-3,3-difluoro-1-piperidyl]acetyl]piperazin-1-yl]pyrimidin-5-yl]-3-[3-[[ethyl(methyl)sulfamoyl]amino]-2,6-difluoro-benzoyl]-1H-pyrrolo[2,3-b]pyridine] | 4.27 nM | 7.84%
CC(C)S(=O)(=O)Nc1ccc(F)c(C(=O)c2c[nH]c3ncc(-c4ccc(N5CCN(C(=O)C6CC(N7CCC(c8ccc(NC9CCC(=O)NC9=O)cc8)CC7)C6)CC5)nc4)cc23)c1F (centres unmarked) [Example A107, N-[3-[5-[6-[4-[3-[4-[4-[(2,6-Dioxopiperidin-3-yl)amino]phenyl]piperidin-1-yl]cyclobutanecarbonyl]piperazin-1-yl]pyridin-3-yl]-1H-pyrrolo[2,3-b]pyridine-3-carbonyl]-2,4-difluorophenyl]propane-2-sulfonamide] | 12 nM | 12%
CCN(C)S(=O)(=O)Nc1cccc(C(=O)c2c[nH]c3ncc(-c4ccc(N5CCN(C(=O)NC6CCN(c7ccc(NC8CCC(=O)NC8=O)cc7F)CC6)CC5)nc4)cc23)c1F (centres unmarked) [Example 154, N-[1-[4-[(2,6-dioxo-3-piperidyl)amino]-2-fluoro-phenyl]-4-piperidyl]-4-[5-[3-[3-[[ethyl(methyl)sulfamoyl]amino]-2-fluoro-benzoyl]-1H-pyrrolo[2,3-b]pyridin-5-yl]-2-pyridyl]piperazine-1-carboxamide] | 2.94 nM | 8.25%
CCN(C)S(=O)(=O)Nc1ccc(F)c(C(=O)c2c[nH]c3ncc(-c4cnc(N5CCN(C(=O)CC6CCC(c7ccc(NC8CCC(=O)NC8=O)cc7)CC6)CC5)nc4)cc23)c1F (single isomer, unassigned) [Example 35, 5-[2-[4-[2-[4-[4-[(2,6-dioxo-3-piperidyl)amino]phenyl]cyclohexyl]acetyl]piperazin-1-yl]pyrimidin-5-yl]-3-[3-[[ethyl(methyl)sulfamoyl]amino]-2,6-difluoro-benzoyl]-1H-pyrrolo[2,3-b]pyridine] | 25 nM | 23.1%
CCN(C)S(=O)(=O)Nc1ccc(F)c(C(=O)c2c[nH]c3ncc(-c4ccc(OC5CCN(C(=O)CN6CCC(c7ccc(NC8CCC(=O)NC8=O)cc7)CC6)CC5)cc4)cc23)c1F (centres unmarked) [Example A31, 5-[4-[1-[2-[4-[4-[(2,6-dioxopiperidin-3-yl)amino]phenyl]piperidin-1-yl]acetyl]piperidin-4-yl]oxyphenyl]-3-[3-[[ethyl(methyl)sulfamoyl]amino]-2,6-difluorobenzoyl]-1H-pyrrolo[2,3-b]pyridine] | 15 nM | 12%
CCN(C)S(=O)(=O)Nc1ccc(F)c(C(=O)c2c[nH]c3ncc(C#Cc4ccc(C(=O)NCCN5CCC(c6ccc(NC7CCC(=O)NC7=O)cc6)CC5)cc4)cc23)c1F (centres unmarked) [Example A86, N-[2-[4-[4-[(2,6-Dioxopiperidin-3-yl)amino]phenyl]piperidin-1-yl]ethyl]-4-[2-[3-[3-[[ethyl(methyl)sulfamoyl]amino]-2,6-difluorobenzoyl]-1H-pyrrolo[2,3-b]pyridin-5-yl]ethynyl]benzamide] | 32 nM | 23%
CCN(C)S(=O)(=O)Nc1ccc(F)c(C(=O)c2c[nH]c3ncc(-c4cc(F)c(N5CCN(C(=O)CN6CCC(c7ccc(NC8CCC(=O)NC8=O)cc7)CC6)CC5)c(F)c4)cc23)c1F (centres unmarked) [Example 93, 5-[4-[4-[2-[4-[4-[(2,6-dioxo-3-piperidyl)amino]phenyl]-1-piperidyl]acetyl]piperazin-1-yl]-3,5-difluoro-phenyl]-3-[3-[[ethyl(methyl)sulfamoyl]amino]-2,6-difluoro-benzoyl]-1H-pyrrolo[2,3-b]pyridine] | 23.8 nM | 8.31%
CCN(C)S(=O)(=O)Nc1ccc(F)c(C(=O)c2c[nH]c3ncc(-c4ccc(N5CCC(NC(=O)CN6CCC(c7ccc(OC8CCC(=O)NC8=O)cn7)CC6)CC5)cc4)cc23)c1F (centres unmarked) [Example A64, 2-[4-[5-(2,6-Dioxopiperidin-3-yl)oxypyridin-2-yl]piperidin-1-yl]-N-[1-[4-[3-[3-[[ethyl(methyl)sulfamoyl]amino]-2,6-difluorobenzoyl]-1H-pyrrolo[2,3-b]pyridin-5-yl]phenyl]piperidin-4-yl]acetamide;formic acid] | 67 nM | 13%
CCN(C)S(=O)(=O)Nc1ccc(F)c(C(=O)c2c[nH]c3ncc(-c4ccc(N5CCN(C(=O)CC6(O)CCN(c7ccc(N8CCC(=O)NC8=O)cc7F)CC6)CC5)cc4)cc23)c1F [Example 169, 5-[4-[4-[2-[1-[4-(2,4-dioxohexahydropyrimidin-1-yl)-2-fluoro-phenyl]-4-hydroxy-4-piperidyl]acetyl]piperazin-1-yl]phenyl]-3-[3-[[ethyl(methyl)sulfamoyl]amino]-2,6-difluoro-benzoyl]-1H-pyrrolo[2,3-b]pyridine] | 2.82 nM | 7.34%
CCN(C)S(=O)(=O)Nc1ccc(F)c(C(=O)c2c[nH]c3ncc(-c4cnc(N5CCN(C(=O)CN6CCN(c7ccc(NC8CCC(=O)NC8=O)cc7)CC6)CC5)nc4)cc23)c1F (centres unmarked) [Example A16, 5-[2-[4-[2-[4-[4-[(2,6-Dioxopiperidin-3-yl)amino]phenyl]piperazin-1-yl]acetyl]piperazin-1-yl]pyrimidin-5-yl]-3-[3-[[ethyl(methyl)sulfamoyl]amino]-2,6-difluorobenzoyl]-1H-pyrrolo[2,3-b]pyridine] | 8 nM | 11%
CCN(C)S(=O)(=O)Nc1ccc(F)c(C(=O)c2c[nH]c3ncc(-c4cnc(N5CCN(C(=O)CC6(O)CCN(c7ccc(N[C@H]8CCC(=O)NC8=O)cc7F)CC6)CC5)nc4)cc23)c1F (single isomer, unassigned) [Example 166] | 2.82 nM | 8.9%
CCN(C)S(=O)(=O)Nc1ccc(F)c(C(=O)c2c[nH]c3ncc(-c4cnc(N5CCN(C(=O)CN6CCC(c7ccc(NC8CCC(=O)NC8=O)cc7)CC6)CC5)nc4)c(C)c23)c1F (centres unmarked) [Example 65, 5-[2-[4-[2-[4-[4-[(2,6-dioxo-3-piperidyl)amino]phenyl]-1-piperidyl]acetyl]piperazin-1-yl]pyrimidin-5-yl]-3-[3-[[ethyl(methyl)sulfamoyl]amino]-2,6-difluoro-benzoyl]-4-methyl-1H-pyrrolo[2,3-b]pyridine] | 9.97 nM | 3.79%
CCN(C)S(=O)(=O)Nc1ccc(F)c(C(=O)c2c[nH]c3ncc(-c4cnc(N5CCCN(C(=O)CN6CCC(c7ccc(NC8CCC(=O)NC8=O)cc7)CC6)CC5)nc4)cc23)c1F (centres unmarked) [Example 63, 5-[2-[4-[2-[4-[4-[(2,6-dioxo-3-piperidyl)amino]phenyl]-1-piperidyl]acetyl]-1,4-diazepan-1-yl]pyrimidin-5-yl]-3-[3-[[ethyl(methyl)sulfamoyl]amino]-2,6-difluoro-benzoyl]-1H-pyrrolo[2,3-b]pyridine] | 40.2 nM | 11.8%

From patent US12559492B2, “BRAF degraders” (C4 Therapeutics, Inc., priority 2020, dated 2026)
